Measurements reported in patent US6914045B2, “Glycopeptide antibiotics” (Wyeth Holdings Corporation, priority 2001, dated 2005).
In brackets after ≈: the same amount, converted by molar mass.

Tests used:
Assay in all cases: in vitro antibacterial evaluation, MIC by broth dilution
Type in all cases: cell-based
Streptococcus sp. = conditions: broth dilution, 18 hours at 35° C.
How it was run: (§1)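 Following National Committee for Clinical Laboratory Standards recommendations (M7-A2), susceptibility was measured by dilution in Muller-Hinton II […]. Bacteria were seeded at 5×10^5 CFU/mL against compound concentrations from 64 down to 0.06 μg/mL.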

Staphylococcus sp. = conditions: broth dilution, 18 hours at 35° C.; for MIC Staphylococcus aureus (GC 1131): strain GC 1131
How it was run: as §1

Escherichia coli = system: Escherichia coli
How it was run: as §1

Enterococcus sp. = conditions: broth dilution, 18 hours at 35° C.
How it was run: as §1

With `CC(c1ccccc1)C1NC(=O)CNC(=O)C(CO)NC(=O)C(C(O)C2CNC(=N)N2C2OC(CO)C(O)C(O)C2O)NC(=O)C(C(O)C2CNC(=N)N2)NC(=O)C(Cc2ccc(OC3OC(CO)C(OC4OC5COC(c6ccc7ccccc7c6)OC5C(O)C4O)C(O)C3O)cc2)NC1=O` (stereo not drawn) [Example 145] the “MIC Streptococcus agalactiae (GC 4564)” value (Streptococcus sp.; Streptococcus agalactiae (GC 4564)) was <0.5 µg/mL, the “MIC Streptococcus pneumoniae (ATCC 6301)” value (Streptococcus sp.; Streptococcus pneumoniae (ATCC 6301)) was <0.5 µg/mL and the “MIC Streptococcus pneumoniae (GC 1894)” value (Streptococcus sp.; Streptococcus pneumoniae (GC 1894)) was <0.5 µg/mL. The “MIC Streptococcus pneumoniae (GC 4565)” value (Streptococcus sp.; Streptococcus pneumoniae (GC 4565)) was <0.5 µg/mL, the “MIC Streptococcus pyogenes (GC 4563)” value (Streptococcus sp.; Streptococcus pyogenes (GC 4563)) was 1 µg/mL (≈ 0.698 µM) and the “MIC Streptococcus pneumoniae (ATCC 6301)” value (Streptococcus sp.; strain ATCC 6301) was <0.5 µg/mL. For the same molecule, the “MIC Streptococcus pneumoniae (GC 1894)” value (Streptococcus sp.; strain GC 1894) was <0.5 µg/mL, the “MIC Streptococcus pyogenes (GC 4563)” value (Streptococcus sp.; strain GC 4563) was 1 µg/mL (≈ 0.698 µM) and the “MIC Streptococcus agalactiae (GC 4564)” value (Streptococcus sp.; strain GC 4564) was <0.5 µg/mL. The “MIC Streptococcus pneumoniae (GC 4565)” value (Streptococcus sp.; strain GC 4565) was <0.5 µg/mL, the “MIC Staphylococcus aureus (GC 1131)” value (Staphylococcus sp.; inoculum 5×10^5 CFU/mL) was <0.5 µg/mL and the “MIC Staphylococcus aureus (ATCC 29213)” value (Staphylococcus sp.; strain ATCC 29213) was 1 µg/mL (≈ 0.698 µM). The “MIC Staphylococcus aureus (GC 1131)” value (Staphylococcus sp.) was <0.5 µg/mL, the “MIC Staphylococcus aureus (GC 3051)” value (Staphylococcus sp.; strain GC 3051) was 1 µg/mL (≈ 0.698 µM) and the “MIC Staphylococcus aureus (GC 3053)” value (Staphylococcus sp.; strain GC 3053) was 1 µg/mL (≈ 0.698 µM). For the same molecule, the “MIC Staphylococcus aureus (GC 4541)” value (Staphylococcus sp.; strain GC 4541) was <0.5 µg/mL, the “MIC Staphylococcus aureus (GC 4542)” value (Staphylococcus sp.; strain GC 4542) was <0.5 µg/mL and the “MIC Staphylococcus aureus-SMITH (GC 4543)” value (Staphylococcus sp.; strain GC 4543) was <0.5 µg/mL. The “MIC Staphylococcus aureus (GC 4544)” value (Staphylococcus sp.; strain GC 4544) was 1 µg/mL (≈ 0.698 µM), the “MIC Staphylococcus aureus (GC 4545)” value (Staphylococcus sp.; strain GC 4545) was 1 µg/mL (≈ 0.698 µM) and the “MIC Staphylococcus haemolyticus (GC 4546)” value (Staphylococcus sp.; strain GC 4546) was <0.5 µg/mL. The “MIC Coagulase Negative Staphylococcus (GC 4547)” value (Staphylococcus sp.; strain GC 4547) was 1 µg/mL (≈ 0.698 µM), the “MIC Coagulase Negative Staphylococcus (GC 4548)” value (Staphylococcus sp.; strain GC 4548) was <0.5 µg/mL and the “MIC Coagulase Negative Staphylococcus (GC 4549)” value (Staphylococcus sp.; strain GC 4549) was 1 µg/mL (≈ 0.698 µM). For the same molecule, the “MIC Coagulase Negative Staphylococcus (GC 4551)” value (Staphylococcus sp.; strain GC 4551) was <0.5 µg/mL, the “MIC Coagulase Negative Staphylococcus (GC 6257)” value (Staphylococcus sp.; strain GC 6257) was 0.5 µg/mL (≈ 0.349 µM) and the “MIC Staphylococcus aureus-SMITH (GC 4543)” value (Staphylococcus sp.; strain SMITH GC 4543) was <0.5 µg/mL. The “MIC Escherichia coli (ATCC 25922)” value (Escherichia coli; strain ATCC 25922, 18 hours at 35° C.) was 64 µg/mL (≈ 44.6 µM), the “MIC Escherichia coli (GC 4559)” value (Escherichia coli; strain GC 4559, 18 hours at 35° C.) was 32 µg/mL (≈ 22.3 µM) and the “MIC Escherichia coli (GC 4560)” value (Escherichia coli; strain GC 4560, 18 hours at 35° C.) was <0.5 µg/mL. The “MIC Enterococcus avium (GC 4558)” value (Enterococcus sp.; Enterococcus avium (GC 4558)) was 1 µg/mL (≈ 0.698 µM), the “MIC Enterococcus faecalis (ATCC 29212)” value (Enterococcus sp.; Enterococcus faecalis (ATCC 29212)) was 1 µg/mL (≈ 0.698 µM) and the “MIC Enterococcus faecalis (GC 2242)” value (Enterococcus sp.; Enterococcus faecalis (GC 2242)) was <0.5 µg/mL. The “MIC Enterococcus faecalis (GC 2691)” value (Enterococcus sp.; Enterococcus faecalis (GC 2691)) was 1 µg/mL (≈ 0.698 µM), the “MIC Enterococcus faecalis (GC 3059)” value (Enterococcus sp.; Enterococcus faecalis (GC 3059)) was 1 µg/mL (≈ 0.698 µM) and the “MIC Enterococcus faecalis (GC 4552)” value (Enterococcus sp.; Enterococcus faecalis (GC 4552)) was 1 µg/mL (≈ 0.698 µM). For the same molecule, the “MIC Enterococcus faecalis (GC 4553)” value (Enterococcus sp.; Enterococcus faecalis (GC 4553)) was 2 µg/mL (≈ 1.4 µM), the “MIC Enterococcus faecalis (GC 4554)” value (Enterococcus sp.; Enterococcus faecalis (GC 4554)) was 1 µg/mL (≈ 0.698 µM) and the “MIC Enterococcus faecalis (GC 6189)” value (Enterococcus sp.; Enterococcus faecalis (GC 6189)) was 1 µg/mL (≈ 0.698 µM). For the same molecule, the “MIC Enterococcus faecium (GC 2243)” value (Enterococcus sp.; Enterococcus faecium (GC 2243)) was 1 µg/mL (≈ 0.698 µM), the “MIC Enterococcus faecium (GC 4556)” value (Enterococcus sp.; Enterococcus faecium (GC 4556)) was 1 µg/mL (≈ 0.698 µM) and the “MIC Enterococcus faecium (GC 4557)” value (Enterococcus sp.; Enterococcus faecium (GC 4557)) was 1 µg/mL (≈ 0.698 µM). The “MIC Enterococcus faecalis (ATCC 29212)” value (Enterococcus sp.; strain ATCC 29212) was 1 µg/mL (≈ 0.698 µM), the “MIC Enterococcus faecalis (GC 2242)” value (Enterococcus sp.; strain GC 2242) was <0.5 µg/mL and the “MIC Enterococcus faecium (GC 2243)” value (Enterococcus sp.; strain GC 2243) was 1 µg/mL (≈ 0.698 µM). For the same molecule, the “MIC Enterococcus faecalis (GC 2691)” value (Enterococcus sp.; strain GC 2691) was 1 µg/mL (≈ 0.698 µM), the “MIC Enterococcus faecalis (GC 3059)” value (Enterococcus sp.; strain GC 3059) was 1 µg/mL (≈ 0.698 µM) and the “MIC Enterococcus faecalis (GC 4552)” value (Enterococcus sp.; strain GC 4552) was 1 µg/mL (≈ 0.698 µM). The “MIC Enterococcus faecalis (GC 4553)” value (Enterococcus sp.; strain GC 4553) was 2 µg/mL (≈ 1.4 µM), the “MIC Enterococcus faecalis (GC 4554)” value (Enterococcus sp.; strain GC 4554) was 1 µg/mL (≈ 0.698 µM) and the “MIC Enterococcus faecium (GC 4556)” value (Enterococcus sp.; strain GC 4556) was 1 µg/mL (≈ 0.698 µM). For the same molecule, the “MIC Enterococcus faecium (GC 4557)” value (Enterococcus sp.; strain GC 4557) was 1 µg/mL (≈ 0.698 µM), the “MIC Enterococcus avium (GC 4558)” value (Enterococcus sp.; strain GC 4558) was 1 µg/mL (≈ 0.698 µM) and the “MIC Enterococcus faecalis (GC 6189)” value (Enterococcus sp.; strain GC 6189) was 1 µg/mL (≈ 0.698 µM).
